Assay results as given in patent US20150291598A1 (NOVARTIS AG, priority 2012, published 2015).

Test system: P. falciparum (NF54 or 3D7 strain)
Test: Assay for P. falciparum proliferation in infected human blood cells (SYBR Green)
Type: cell-based, Plasmodium falciparum
Conditions: NF54 or 3D7 infected human erythrocytes, 72 hours; read-out: EC50 (nM), inhibitory efficacy in delaying P. falciparum proliferation in infected human blood cells
Procedure, shortened: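 NF54 or 3D7 parasites in O+ human erythrocytes at 2.5% hematocrit and 0.3% parasitemia final, exposed to compounds 72 h at 37 °C under 93% N2/4% CO2/3% O2.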

**Q.** `CN(C(=O)c1cn2c(-c3ccc4c(cnn4C)c3)cnc2cn1)c1ccc(F)cc1` [Compound 106, N-(4-fluorophenyl)-N-methyl-3-(1-methyl-1H-indazol-5-yl)imidazo[1,2-a]pyrazine-6-carboxamide] was tested. Which EC50 did it give?
**A.** 24 nM

Same assay, conditions: Plasmodium falciparum, Erythrocyte, 72 h, NF54 or 3D7 infected human erythrocytes, 72 hours; read-out: EC50 (nM), inhibitory efficacy in delaying P. falciparum proliferation in infected human blood cells

**Q.** With `CN(C(=O)c1ccc(C(C)(C)C)cc1)c1cn2c(-c3ccc(C(F)(F)F)cc3)cnc2cn1` [Compound 417, 4-tert-butyl-N-methyl-N-{3-[4-(trifluoromethyl)phenyl]imidazo[1,2-a]pyrazin-6-yl}benzamide] as the compound, how does the EC50 read?
**A.** > 10000 nM

**Q.** Which EC50 does the source give for `CN(C(=O)c1cn2c(-c3ccc(C(F)(F)F)cc3)cnc2cn1)c1ccc(Cl)nc1Cl` [Compound 342, N-(2,6-dichloropyridin-3-yl)-N-methyl-3-[4-(trifluoromethyl)phenyl]imidazo[1,2-a]pyrazine-6-carboxamide] here?
**A.** 393 nM

**Q.** For `CC(=O)Nc1ccc(-c2cnc3cnc(CN(C)c4ccc(C#N)cc4)cn23)cn1` [Compound 226, N-[5-(6-{[(4-cyanophenyl)(methyl)amino]methyl}imidazo[1,2-a]pyrazin-3-yl)pyridin-2-yl]acetamide], which EC50 is on record?
**A.** 37 nM

**Q.** How did the EC50 turn out when `O=C(Nc1nc2cccc(Cl)c2s1)c1cn2c(-c3ccc(C(F)(F)F)cc3)cnc2cn1` [Compound 442, N-(7-chloro-1,3-benzothiazol-2-yl)-3-[4-(trifluoromethyl)phenyl]imidazo[1,2-a]pyrazine-6-carboxamide] was run?
**A.** 604 nM

**Q.** How did the EC50 turn out when `CCN(C(=O)c1cn2c(-c3ccc(C(F)(F)F)cc3)cnc2cn1)c1ccc(C#N)cc1` [Compound 114, N-(4-cyanophenyl)-N-ethyl-3-[4-(trifluoromethyl)phenyl]imidazo[1,2-a]pyrazine-6-carboxamide] was run?
**A.** 76 nM

**Q.** Which EC50 does the source give for `CN(C(=O)c1ccc(N2CCOCC2)cc1)c1cn2c(-c3ccc(C(F)(F)F)cc3)cnc2cn1` [Compound 24, N-methyl-4-(morpholin-4-yl)-N-{3-[4-(trifluoromethyl)phenyl]imidazo[1,2-a]pyrazin-6-yl}benzamide] here?
**A.** 1120 nM

**Q.** How did the EC50 turn out when `CN(C(=O)c1cn2c(-c3ccc(C(F)(F)F)cc3)cnc2cn1)c1ccc(-c2ccccc2)nc1` [Compound 499, N-methyl-N-(6-phenylpyridin-3-yl)-3-[4-(trifluoromethyl)phenyl]imidazo[1,2-a]pyrazine-6-carboxamide] was run?
**A.** 4510 nM

**Q.** For `Cc1ccc(-c2cnc3cnc(C(=O)N(C)c4ccc(Cl)cc4)cn23)cc1` [Compound 432, N-(4-chlorophenyl)-N-methyl-3-(4-methylphenyl)imidazo[1,2-a]pyrazine-6-carboxamide], which EC50 is on record?
**A.** 79 nM

**Q.** How did the EC50 turn out when `CN(C(=O)c1cn2c(-c3ccc(OC(F)F)cc3)cnc2cn1)c1ccc(S(C)(=O)=O)cc1` [Compound 209, 3-[4-(difluoromethoxy)phenyl]-N-(4-methanesulfonylphenyl)-N-methylimidazo[1,2-a]pyrazine-6-carboxamide] was run?
**A.** 2700 nM

**Q.** For `CC(=O)Nc1ccc(-c2cnc3cnc(CN(C)c4ccc(C)cn4)cn23)cn1` [Compound 242, N-[5-(6-{[methyl(5-methylpyridin-2-yl)amino]methyl}imidazo[1,2-a]pyrazin-3-yl)pyridin-2-yl]acetamide], which EC50 is on record?
**A.** 215 nM

**Q.** Which EC50 does the source give for `CN(C(=O)c1cn2c(-c3ccc(-n4cccn4)cc3)cnc2cn1)c1ccc(Cl)nc1` [Compound 330, N-(6-chloropyridin-3-yl)-N-methyl-3-[4-(1H-pyrazol-1-yl)phenyl]imidazo[1,2-a]pyrazine-6-carboxamide] here?
**A.** 1960 nM

**Q.** How did the EC50 turn out when `CN(Cc1ccccc1)C(=O)c1cn2c(-c3ccc(C(F)(F)F)cc3)cnc2cn1` [Compound 370, N-benzyl-N-methyl-3-[4-(trifluoromethyl)phenyl]imidazo[1,2-a]pyrazine-6-carboxamide] was run?
**A.** 8200 nM

**Q.** `CN(C)CCCOc1ccc(-c2cnc3cnc(C(=O)N(C)c4ccc(C#N)cc4)cn23)cn1` [Compound 1, N-(4-cyanophenyl)-3-(6-(3-(dimethylamino)propoxy)pyridin-3-yl)-N-methylimidazo[1,2-a]pyrazine-6-carboxamide] was tested. Which EC50 did it give?
**A.** 477 nM

**Q.** `CN(Cc1cn2c(-c3ccc(Cl)cc3)cnc2cn1)c1ccc(F)cc1` [Compound 18, N-{[3-(4-chlorophenyl)imidazo[1,2-a]pyrazin-6-yl]methyl}-4-fluoro-N-methylaniline] was tested. Which EC50 did it give?
**A.** 78 nM

**Q.** With `COCCN(C(=O)c1cn2c(-c3ccc(C(F)(F)F)cc3)cnc2cn1)c1ccc(C#N)cc1` [Compound 238, N-(4-cyanophenyl)-N-(2-methoxyethyl)-3-[4-(trifluoromethyl)phenyl]imidazo[1,2-a]pyrazine-6-carboxamide] as the compound, how does the EC50 read?
**A.** 152 nM

**Q.** Which EC50 does the source give for `CN(Cc1cn2c(-c3ccc(-c4nnc(N)s4)cc3)cnc2cn1)c1ccc(Cl)nc1` [Compound 28, -({3-[4-(5-amino-1,3,4-thiadiazol-2-yl)phenyl]imidazo[1,2-a]pyrazin-6-yl}methyl)-6-chloro-N-methylpyridin-3-amine] here?
**A.** 13 nM

**Q.** Which EC50 does the source give for `CN(C(=O)c1cn2c(-c3ccc(Cl)nc3)cnc2cn1)c1ccc(C#N)cc1` [Compound 439, 3-(6-chloropyridin-3-yl)-N-(4-cyanophenyl)-N-methylimidazo[1,2-a]pyrazine-6-carboxamide] here?
**A.** 2760 nM

**Q.** `CN(C(=O)c1cn2c(-c3ccc(-c4ccn[nH]4)cc3)cnc2cn1)c1ccc(S(C)(=O)=O)cc1` [Compound 131, N-(4-methanesulfonylphenyl)-N-methyl-3-[4-(1H-pyrazol-5-yl)phenyl]imidazo[1,2-a]pyrazine-6-carboxamide] was tested. Which EC50 did it give?
**A.** 140 nM

**Q.** For `CN(c1cn2c(-c3ccc(C(F)(F)F)cc3)cnc2cn1)S(=O)(=O)c1ccc(C#N)cc1` [Compound 347, 4-cyano-N-methyl-N-{3-[4-(trifluoromethyl)phenyl]imidazo[1,2-a]pyrazin-6-yl}benzene-1-sulfonamide], which EC50 is on record?
**A.** 3260 nM

**Q.** With `CN(C(=O)c1ccc(C(F)(F)F)cc1)c1cn2c(-c3ccc(C(F)(F)F)cc3)cnc2cn1` [Compound 276, N-methyl-4-(trifluoromethyl)-N-{3-[4-(trifluoromethyl)phenyl]imidazo[1,2-a]pyrazin-6-yl}benzamide] as the compound, how does the EC50 read?
**A.** 310 nM

**Q.** Which EC50 does the source give for `COc1cc(N(C)C(=O)c2cn3c(-c4ccc(C(F)(F)F)cc4)cnc3cn2)ccn1` [Compound 296, N-(2-methoxypyridin-4-yl)-N-methyl-3-[4-(trifluoromethyl)phenyl]imidazo[1,2-a]pyrazine-6-carboxamide] here?
**A.** 1280 nM

**Q.** For `Cc1cccc(N(C)C(=O)c2cn3c(-c4ccc(C(F)(F)F)cc4)cnc3cn2)n1` [Compound 345, N-methyl-N-(6-methylpyridin-2-yl)-3-[4-(trifluoromethyl)phenyl]imidazo[1,2-a]pyrazine-6-carboxamide], which EC50 is on record?
**A.** 2300 nM

**Q.** `C[C@@H](N)CC(=O)Nc1ccc(-c2cnc3cnc(C(=O)N(C)c4ccc(C#N)cc4)cn23)cc1` [Compound 269, 3-{4-[(3R)-3-aminobutanamido]phenyl}-N-(4-cyanophenyl)-N-methylimidazo[1,2-a]pyrazine-6-carboxamide] was tested. Which EC50 did it give?
**A.** 651 nM

**Q.** `CN(C(=O)c1cn2c(-c3ccc(C(F)(F)F)cc3)cnc2cn1)c1ccc(C(C)(C)C)nc1` [Compound 384, N-(6-tert-butylpyridin-3-yl)-N-methyl-3-[4-(trifluoromethyl)phenyl]imidazo[1,2-a]pyrazine-6-carboxamide] was tested. Which EC50 did it give?
**A.** 6620 nM

**Q.** With `CN(C(=O)c1cn2c(-c3ccc(OCC#N)cc3)cnc2cn1)c1ccc(C#N)cc1` [Compound 273, 3-[4-(cyanomethoxy)phenyl]-N-(4-cyanophenyl)-N-methylimidazo[1,2-a]pyrazine-6-carboxamide] as the compound, how does the EC50 read?
**A.** 186 nM

**Q.** How did the EC50 turn out when `CN(C(=O)c1cn2c(-c3ccc(OC(F)F)cc3)cnc2cn1)c1ccc(C#N)cn1` [Compound 85, N-(5-cyanopyridin-2-yl)-3-[4-(difluoromethoxy)phenyl]-N-methylimidazo[1,2-a]pyrazine-6-carboxamide] was run?
**A.** 1100 nM

**Q.** With `COc1ccc(-c2cnc3cnc(C(=O)N(C)c4ccc(Cl)nc4)cn23)cc1` [Compound 100, N-(6-chloropyridin-3-yl)-3-(4-methoxyphenyl)-N-methylimidazo[1,2-a]pyrazine-6-carboxamide] as the compound, how does the EC50 read?
**A.** 297 nM

**Q.** With `CC(C)N(C(=O)c1cn2c(-c3ccc(C(F)(F)F)cc3)cnc2cn1)c1ccc(C#N)cc1` [Compound 92, N-(4-cyanophenyl)-N-(propan-2-yl)-3-[4-(trifluoromethyl)phenyl]imidazo[1,2-a]pyrazine-6-carboxamide] as the compound, how does the EC50 read?
**A.** 349 nM

**Q.** Which EC50 does the source give for `CN(C(=O)c1cn2c(-c3ccc(C(F)(F)F)cc3)cnc2cn1)c1ccc(F)c(Br)c1` [Compound 52, N-(3-bromo-4-fluorophenyl)-N-methyl-3-[4-(trifluoromethyl)phenyl]imidazo[1,2-a]pyrazine-6-carboxamide] here?
**A.** 187 nM

**Q.** How did the EC50 turn out when `CN(C(=O)c1ccc(C#N)cc1)c1cn2c(-c3ccc(C(F)(F)F)cc3)cnc2cn1` [Compound 283, 4-cyano-N-methyl-N-{3-[4-(trifluoromethyl)phenyl]imidazo[1,2-a]pyrazin-6-yl}benzamide] was run?
**A.** 178 nM

**Q.** With `CN(C(=O)c1cn2c(-c3ccc4c(c3)OCCO4)cnc2cn1)c1ccc(Cl)nc1` [Compound 360, N-(6-chloropyridin-3-yl)-3-(2,3-dihydro-1,4-benzodioxin-6-yl)-N-methylimidazo[1,2-a]pyrazine-6-carboxamide] as the compound, how does the EC50 read?
**A.** > 4570 nM

**Q.** Which EC50 does the source give for `CN(C(=O)c1cn2c(-c3cnc4c(cnn4C)c3)cnc2cn1)c1ccc(C#N)cc1` [Compound 391, N-(4-cyanophenyl)-N-methyl-3-{1-methyl-1H-pyrazolo[3,4-b]pyridin-5-yl}imidazo[1,2-a]pyrazine-6-carboxamide] here?
**A.** 2910 nM

**Q.** `CN(C(=O)c1cn2c(-c3ccc4c(ccn4C)c3)cnc2cn1)c1ccc(C#N)cc1` [Compound 123, N-(4-cyanophenyl)-N-methyl-3-(1-methyl-1H-indol-5-yl)imidazo[1,2-a]pyrazine-6-carboxamide] was tested. Which EC50 did it give?
**A.** 387 nM

**Q.** `Cc1ccc(-c2cnc3cnc(C(=O)N(C)c4ccc(Cl)cc4Cl)cn23)cc1` [Compound 61, N-(2,4-dichlorophenyl)-N-methyl-3-(4-methylphenyl)imidazo[1,2-a]pyrazine-6-carboxamide] was tested. Which EC50 did it give?
**A.** 1370 nM
